Test results taken from patent US10681909B2, “Herbicidal triazoles” (FMC Corporation, priority 2014, dated 2020).

Key:
galium = test: Test C preemergence; type: in vivo, Galium aparine; conditions: for Plant response rating (scale of 0 to 100 where 0 is no effect and 100 is complete control): Galium, preemergence; for Galium plant response rating (0 to 100): Preemergence, visual rating after 13 to 15 d
Method in brief: (§1)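 Test chemicals in a non-phytotoxic solvent mixture with surfactant were applied to pots of plants at 2 to 18 cm (1- to 4-leaf stage) for postemergence treatment, grown in a peat-based medium with vermiculite, starter nutrients and dolomitic limestone. Preemergence treatment was to seeds freshly planted in loam soil mixed with sand.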

bromegrass, down [1] = test: Test D postemergence; type: in vivo, Bromus tectorum; conditions: scale 0 to 100
Method in brief: (§2)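 Seeds were sown in silt loam and sprayed preemergence with test chemicals in a non-phytotoxic solvent mixture containing surfactant. For postemergence tests, plants grown in peat-based medium to 2 to 18 cm (1- to 4-leaf stage) were sprayed with the same formulation. Injury was rated visually against untreated controls after 14 to 21 d in a controlled growth environment.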

crabgrass, large = test: Test A preemergence; type: in vivo, Digitaria sanguinalis; conditions: Digitaria sanguinalis, pre-emergence, 240 h, 0 to 100 scale (0 no effect, 100 complete control), read-out: Plant response rating, Crabgrass, Large
Method in brief: (§3)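 For preemergence, seeds were sown in a loam soil-sand blend and given a directed soil spray of test chemical in a non-phytotoxic solvent mixture with surfactant. For postemergence, plants in pots of the same blend were sprayed with the same formulation at the one- to two-leaf stage, 2 to 10 cm tall.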

bromegrass, down [2] = test: Test D preemergence; type: in vivo, Bromus tectorum; conditions: scale 0 to 100
Method in brief: as §2

chamomile = test: Test D preemergence; type: in vivo, Matricaria inodora; conditions: scale 0 to 100
Method in brief: as §2

morningglory = test: Test C preemergence; type: in vivo, Ipomoea coccinea; conditions: for Plant response rating (scale of 0 to 100 where 0 is no effect and 100 is complete control): Morningglory, preemergence; for Morningglory plant response rating (0 to 100): Preemergence, visual rating after 13 to 15 d
Method in brief: as §1

ryegrass, Ital. = test: Test D postemergence; type: in vivo, Lolium multiflorum; conditions: scale 0 to 100
Method in brief: as §2

soybean = test: Test C preemergence; type: in vivo, Glycine max; conditions: for Soybean plant response rating (0 to 100): Preemergence, visual rating after 13 to 15 d
Method in brief: as §1

foxtail, giant = test: Test C preemergence; type: in vivo, Setaria faberii; conditions: for Plant response rating (scale of 0 to 100 where 0 is no effect and 100 is complete control): Foxtail, Giant, preemergence; for Foxtail, Giant plant response rating (0 to 100): Preemergence, visual rating after 13 to 15 d
Method in brief: as §1

speedwell = test: Test D preemergence; type: in vivo, Veronica persica; conditions: scale 0 to 100
Method in brief: as §2

lambsquarters = test: Test D preemergence; type: in vivo, Chenopodium album; conditions: scale 0 to 100
Method in brief: as §2

bluegrass = test: Test D postemergence; type: in vivo, Poa annua; conditions: scale 0 to 100
Method in brief: as §2

corn = test: Test A preemergence; type: in vivo, Zea mays; conditions: Zea mays, pre-emergence, 240 h, 0 to 100 scale (0 no effect, 100 complete control)
Method in brief: as §3

CCOc1nc(-c2ccc(F)cc2)nn1Cc1ccnc(C(F)(F)F)c1 [Compound 8, 4-[[5-ethoxy-3-(4-fluorophenyl)-1H-1,2,4-triazol-1-yl]methyl]-2-(trifluoromethyl)pyridine]
85: Morningglory plant response rating (0 to 100) (morningglory; 31 g ai/ha)
15: Soybean plant response rating (0 to 100) (soybean; 31 g ai/ha)
65: Plant response rating: Bluegrass (bluegrass; 62 g ai/ha)
45: Plant response rating: Bromegrass, Down (bromegrass, down [1]; 62 g ai/ha)
100%: pest or weed control at 125 g/ha (crabgrass, large; 125 g ai/ha) | pest or weed control at 500 g/ha (crabgrass, large; 500 g ai/ha, approx. 10 d) | Corn plant response rating (crop injury, 0 = no effect, 100 = complete kill) at 500 g/ha (corn; 500 g ai/ha, approx. 10 d)
98: Plant response rating (scale of 0 to 100 where 0 is no effect and 100 is complete control) (morningglory; 125 g ai/ha)
100: Plant response rating (scale of 0 to 100 where 0 is no effect and 100 is complete control) (galium; 125 g ai/ha) | Plant response rating (scale of 0 to 100 where 0 is no effect and 100 is complete control) (galium; 250 g ai/ha) | Galium plant response rating (0 to 100) (galium; 62 g ai/ha) | Plant response rating: Bromegrass, Down (bromegrass, down [2]; 125 g ai/ha) | Plant response rating: Bromegrass, Down (bromegrass, down [2]; 250 g ai/ha) | Plant response rating: Chamomile (chamomile; 125 g ai/ha) | Plant response rating: Chamomile (chamomile; 250 g ai/ha) | Plant response rating (scale of 0 to 100 where 0 is no effect and 100 is complete control) (morningglory; 250 g ai/ha) | Morningglory plant response rating (0 to 100) (morningglory; 62 g ai/ha) | Plant response rating (scale of 0 to 100 where 0 is no effect and 100 is complete control) (foxtail, giant; 125 g ai/ha) | Plant response rating (scale of 0 to 100 where 0 is no effect and 100 is complete control) (foxtail, giant; 250 g ai/ha) | Foxtail, Giant plant response rating (0 to 100) (foxtail, giant; 31 g ai/ha) | Foxtail, Giant plant response rating (0 to 100) (foxtail, giant; 62 g ai/ha) | Plant response rating: Speedwell (speedwell; 62 g ai/ha) | Plant response rating: Speedwell (speedwell; 125 g ai/ha) | Plant response rating: Speedwell (speedwell; 250 g ai/ha) | Plant response rating: Lambsquarters (lambsquarters; 62 g ai/ha) | Plant response rating: Lambsquarters (lambsquarters; 125 g ai/ha) | Plant response rating: Lambsquarters (lambsquarters; 250 g ai/ha)
10: Plant response rating: Bromegrass, Down (bromegrass, down [2]; 31 g ai/ha) | Plant response rating: Chamomile (chamomile; 31 g ai/ha)
60: Plant response rating: Bromegrass, Down (bromegrass, down [1]; 250 g ai/ha)
30: Plant response rating: Chamomile (chamomile; 62 g ai/ha)
75: Plant response rating (scale of 0 to 100 where 0 is no effect and 100 is complete control) (soybean; Soybean, preemergence, 250 g ai/ha) | Plant response rating: Bluegrass (bluegrass; 125 g ai/ha) | Plant response rating: Bluegrass (bluegrass; 250 g ai/ha)
80: Galium plant response rating (0 to 100) (galium; 31 g ai/ha)
90%: Corn plant response rating (crop injury, 0 = no effect, 100 = complete kill) at 125 g/ha (corn; 125 g ai/ha)
35: Plant response rating: Bromegrass, Down (bromegrass, down [1]; 31 g ai/ha) | Plant response rating: Bromegrass, Down (bromegrass, down [2]; 62 g ai/ha) | Plant response rating: Ryegrass, Ital. (ryegrass, Ital.; 31 g ai/ha) | Plant response rating: Ryegrass, Ital. (ryegrass, Ital.; 62 g ai/ha) | Soybean plant response rating (0 to 100) (soybean; 62 g ai/ha)
55: Plant response rating: Bromegrass, Down (bromegrass, down [1]; 125 g ai/ha) | Plant response rating: Ryegrass, Ital. (ryegrass, Ital.; 125 g ai/ha) | Plant response rating: Ryegrass, Ital. (ryegrass, Ital.; 250 g ai/ha) | Plant response rating: Bluegrass (bluegrass; 31 g ai/ha)
